Data from patent US20240368177A1, “5-AMINO-6,8-DIHYDRO-1H-FURO[3,4-d]PYRROLO[3,2-b]PYRIDINE-2-CARBOXAMIDE DERIVATIVES AS MTA-COOPERATIVE INHIBITORS OF PRMT5” (BeiGene Switzerland GmbH, priority 2023, published 2024).

Experiments:
[1] = system: HCT116-MTAP-KO; experiment: Cell killing in HCT116 isogenic pair (Cell Titer-Glo viability), MTAP knock-out cells; assay type: cell-based, human; conditions: Homo sapiens, HCT-116, 144 h, 6 days incubation, 0-10 μM, * = more than 50% viability inhibition at tested concentration without a full curve
Source text: (§1) HCT116 cell line (ATCC, CCL-247) was isolated from the colon of an adult with colon cancer. It has a mutation in codon 13 of the ras proto-oncogene and can be used as a positive control for PCR assays of mutation in this codon. HCT116-MTAP-KO was knocked-out-MTAP-gene based HCT116, and a single clone was passed for this assay. HCT116-mock-RNA-KO was knocked-out-mock-gene based HCT116 with MTAP wildtype genotype. The base medium for HCT116 isogenic pair is RPMI 1640, HEPES (Gibco, 22400105). To make the complete growth medium, added the following components to the base medium: fetal bovine serum to a final concentration of 10% (Gibco, 10099-141C). The cell line was grown in a humidified 5% CO2 atmosphere at 37° C. and regularly tested for the presence of mycoplasma with MpcoAlert™ PLUS Mycoplasma Detection Kit (Lonzak LT07-710).
(§2) • Seeded HCT116-mock-RNA-KO (4E2/well) or HCT116-MTAP-KO (4E2/well) cells into a 96-well plate (Greiner: 655090), 100 μL/well. • Incubated at 37° C., 5% CO2, overnight. • Added 50 μL fresh growth medium containing serial dilution of test compounds for a final test compound concentration of 0-10 μM to each well. • Incubated at 37° C., 5% CO2, 6 days. • The cell viability was detected by Cell Titer-Glo (Promega, G7573). Added 70 μL of CeliTiter-Glo® reagent in each well. • Incubated at room temperature for 10 minutes to stabilize luminescent signal. • Analyzed with Microplate Reader (TECAN, SPARK) and fit IC50 using Prism® 9.

[2] = system: HCT116-mock-RNA-KO; experiment: Cell killing in HCT116 isogenic pair (Cell Titer-Glo viability), mock knock-out cells with MTAP wildtype genotype; assay type: cell-based, human; conditions: Homo sapiens, HCT-116, 144 h, 6 days incubation, 0-10 μM
Source text: as §1, §2

| SMILES | IC50 [1] [nM] | IC50 [2] [nM] |
| --- | --- | --- |
| CO[C@@H]1CCOC[C@H]1N(Cc1ccc(-c2c(F)cccc2F)cn1)C(=O)c1cc2nc(N)c3c(c2[nH]1)CO[C@@H]3C [Example 23, (R)-5-amino-N-((5-(2,6-difluorophenyl)pyridin-2-yl)methyl)-N-((3R,4R)-4-methoxytetrahydro-2H-pyran-3-yl)-6-methyl-6,8-dihydro-1H-furo[3,4-d]pyrrolo[3,2-b]pyridine-2-carboxamide] | 4.8 | 81 |
| CO[C@@H]1CCOC[C@H]1N(Cc1ccc(-c2c(F)cccc2F)cn1)C(=O)c1cc2nc(N)c3c(c2[nH]1)CO[C@H]3C [Example 24, (S)-5-amino-N-((5-(2,6-difluorophenyl)pyridin-2-yl)methyl)-N-((3R,4R)-4-methoxytetrahydro-2H-pyran-3-yl)-6-methyl-6,8-dihydro-1H-furo[3,4-d]pyrrolo[3,2-b]pyridine-2-carboxamide] | 103 | 8540 |
| Cn1ncnc1-c1ccc(CN(C(=O)c2cc3nc(N)c4c(c3[nH]2)COC4)[C@@H]2CCCc3cccnc32)nc1 [Example 25, (R)-5-amino-N-((5-(1-methyl-1H-1,2,4-triazol-5-yl)pyridin-2-yl)methyl)-N-(5,6,7,8-tetrahydroquinolin-8-yl)-6,8-dihydro-1H-furo[3,4-d]pyrrolo[3,2-b]pyridine-2-carboxamide] | 96 | 2000 |
| CO[C@@H]1CCOC[C@H]1N(Cc1ccc(C(F)(F)F)cn1)C(=O)c1cc2nc(N)c3c(c2[nH]1)COC3 [Example 26, 5-amino-N-((3R,4R)-4-methoxytetrahydro-2H-pyran-3-yl)-N-((5-(trifluoromethyl)pyridin-2-yl)methyl)-6,8-dihydro-1H-furo[3,4-d]pyrrolo[3,2-b]pyridine-2-carboxamide] | 14 | 1870 |
| CO[C@@H]1CCOC[C@H]1N(Cc1ccc(-c2ccccc2)cn1)C(=O)c1cc2nc(N)c3c(c2[nH]1)COC3 [Example 27, 5-amino-N-((3R,4R)-4-methoxytetrahydro-2H-pyran-3-yl)-N-((5-phenylpyridin-2-yl)methyl)-6,8-dihydro-1H-furo[3,4-d]pyrrolo[3,2-b]pyridine-2-carboxamide] | 2.4 | 284 |
| CO[C@@H]1CCOC[C@H]1N(Cc1ccc(-c2ccncc2)cn1)C(=O)c1cc2nc(N)c3c(c2[nH]1)COC3 [Example 28, N-([3,4′-bipyridin]-6-ylmethyl)-5-amino-N-((3R,4R)-4-methoxytetrahydro-2H-pyran-3-yl)-6,8-dihydro-1H-furo[3,4-d]pyrrolo[3,2-b]pyridine-2-carboxamide] | 11 | 1900 |
| Nc1nc2cc(C(=O)N(Cc3ccc(-c4ccncc4)cn3)Cc3c(F)cccc3F)[nH]c2c2c1COC2 [Example 29, N-([3,4′-bipyridin]-6-ylmethyl)-5-amino-N-(2,6-difluorobenzyl)-6,8-dihydro-1H-furo[3,4-d]pyrrolo[3,2-b]pyridine-2-carboxamide] | 1.3 | 81 |
| Nc1nc2cc(C(=O)N(Cc3ccc(-c4c(F)cncc4F)cn3)Cc3c(F)cccc3F)[nH]c2c2c1COC2 [Example 30, 5-amino-N-((3′,5′-difluoro-[3,4′-bipyridin]-6-yl)methyl)-N-(2,6-difluorobenzyl)-6,8-dihydro-1H-furo[3,4-d]pyrrolo[3,2-b]pyridine-2-carboxamide] | 0.8 | 22 |
| Nc1nc2cc(C(=O)N(Cc3ccc(-c4c(F)cncc4F)cn3)Cc3c(Cl)cccc3Cl)[nH]c2c2c1COC2 [Example 31, 5-amino-N-(2,6-dichlorobenzyl)-N-((3′,5′-difluoro-[3,4′-bipyridin]-6-yl)methyl)-6,8-dihydro-1H-furo[3,4-d]pyrrolo[3,2-b]pyridine-2-carboxamide] | 1.2 | 7.1 |
| N#Cc1ccc(CN(Cc2c(F)cccc2F)C(=O)c2cc3nc(N)c4c(c3[nH]2)COC4)nc1 [Example 32, 5-amino-N-((5-cyanopyridin-2-yl)methyl)-N-(2,6-difluorobenzyl)-6,8-dihydro-1H-furo[3,4-d]pyrrolo[3,2-b]pyridine-2-carboxamide] | 3.9 | 451 |
| Nc1nc2cc(C(=O)N(Cc3c(F)cccc3F)CC3CC3)[nH]c2c2c1COC2 [Example 33, 5-amino-N-(cyclopropylmethyl)-N-(2,6-difluorobenzyl)-6,8-dihydro-1H-furo[3,4-d]pyrrolo[3,2-b]pyridine-2-carboxamide] | 210 | > 10000 |
| CO[C@@H]1CCOC[C@H]1N(Cc1ncc(C(F)(F)F)cc1F)C(=O)c1cc2nc(N)c3c(c2[nH]1)COC3 [Example 34, 5-amino-N-((3-fluoro-5-(trifluoromethyl)pyridin-2-yl)methyl)-N-((3R,4R)-4-methoxytetrahydro-2H-pyran-3-yl)-6,8-dihydro-1H-furo[3,4-d]pyrrolo[3,2-b]pyridine-2-carboxamide] | 7.4 | 1350 |
| C[C@H](c1ncccn1)N(Cc1ncc(C(F)(F)F)cc1F)C(=O)c1cc2nc(N)c3c(c2[nH]1)COC3 [Example 35, (R)-5-amino-N-((3-fluoro-5-(trifluoromethyl)pyridin-2-yl)methyl)-N-(1-(pyrimidin-2-yl)ethyl)-6,8-dihydro-1H-furo[3,4-d]pyrrolo[3,2-b]pyridine-2-carboxamide] | 11 | 1530 |
| CO[C@@H]1CCOC[C@H]1N(Cc1ccc(C2CC2)cn1)C(=O)c1cc2nc(N)c3c(c2[nH]1)COC3 [Example 36, 5-amino-N-((5-cyclopropylpyridin-2-yl)methyl)-N-((3R,4R)-4-methoxytetrahydro-2H-pyran-3-yl)-6,8-dihydro-1H-furo[3,4-d]pyrrolo[3,2-b]pyridine-2-carboxamide] | 5.8 | 445 |
| Nc1nc2cc(C(=O)N(Cc3ccc(C(F)(F)F)nn3)Cc3c(F)cccc3F)[nH]c2c2c1COC2 [Example 37, 5-amino-N-(2,6-difluorobenzyl)-N-((6-(trifluoromethyl)pyridazin-3-yl)methyl)-6,8-dihydro-1H-furo[3,4-d]pyrrolo[3,2-b]pyridine-2-carboxamide] | 13 | 1680 |
| C[C@H]1OCc2c1c(N)nc1cc(C(=O)N(Cc3ccc(C(F)(F)F)cn3)Cc3ncccc3F)[nH]c21 [Example 38, (R)-5-amino-N-((3-fluoropyridin-2-yl)methyl)-6-methyl-N-((5-(trifluoromethyl)pyridin-2-yl)methyl)-6,8-dihydro-1H-furo[3,4-d]pyrrolo[3,2-b]pyridine-2-carboxamide] | 6.3 | 665 |
| CN(C(=O)c1cc2nc(N)c3c(c2[nH]1)COC3)[C@H]1COCc2cc(C(F)(F)F)ccc21 [Example 39, (R)-5-amino-N-methyl-N-(7-(trifluoromethyl)isochroman-4-yl)-6,8-dihydro-1H-furo[3,4-d]pyrrolo[3,2-b]pyridine-2-carboxamide] | 1170 | > 10000 |
| CN(C(=O)c1cc2nc(N)c3c(c2[nH]1)COC3)[C@@H]1COCc2cc(C(F)(F)F)ccc21 [Example 40, (S)-5-amino-N-methyl-N-(7-(trifluoromethyl)isochroman-4-yl)-6,8-dihydro-1H-furo[3,4-d]pyrrolo[3,2-b]pyridine-2-carboxamide] | 13 | 2490 |
| C[C@H](c1ncccn1)N(Cc1ncc(Br)cc1F)C(=O)c1cc2nc(N)c3c(c2[nH]1)COC3 [Example 41, (R)-5-amino-N-((5-bromo-3-fluoropyridin-2-yl)methyl)-N-(1-(pyrimidin-2-yl)ethyl)-6,8-dihydro-1H-furo[3,4-d]pyrrolo[3,2-b]pyridine-2-carboxamide] | 6.6 | 586 |
| Nc1nc2cc(C(=O)N(Cc3ncccn3)Cc3ncc(C(F)(F)F)cc3F)[nH]c2c2c1COC2 [Example 42, 5-amino-N-((3-fluoro-5-(trifluoromethyl)pyridin-2-yl)methyl)-N-(pyrimidin-2-ylmethyl)-6,8-dihydro-1H-furo[3,4-d]pyrrolo[3,2-b]pyridine-2-carboxamide] | 24 | 2500 |
| N#Cc1cc(F)c(CN(Cc2ncccc2F)C(=O)c2cc3nc(N)c4c(c3[nH]2)COC4)c(F)c1 [Example 43, 5-amino-N-(4-cyano-2,6-difluorobenzyl)-N-((3-fluoropyridin-2-yl)methyl)-6,8-dihydro-1H-furo[3,4-d]pyrrolo[3,2-b]pyridine-2-carboxamide] | 2.9 | 207 |
| COC[C@@H](C)N(Cc1ncc(C(F)(F)F)cc1F)C(=O)c1cc2nc(N)c3c(c2[nH]1)COC3 [Example 44, (R)-5-amino-N-((3-fluoro-5-(trifluoromethyl)pyridin-2-yl)methyl)-N-(1-methoxypropan-2-yl)-6,8-dihydro-1H-furo[3,4-d]pyrrolo[3,2-b]pyridine-2-carboxamide] | 8.2 | 568 |
